Biological target: T1, DCAMKL2 (DCK2) (Homo sapiens, UniProt Q8N568)
T1 construct: purchased Thermo Fisher Scientific (Life Technologies) SelectScreen
Assay: SelectScreen Z'LYTE
Format: biochemical
Outline: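 Compound tested in SelectScreen activity assays, Z'LYTE for CSF1R, CDK1/cyclin B and MAP2K6 and Adapta for CAMK1. ATP for CAMK1 was listed as 10, and Km app was used for CSF1R. Results are expressed in percent.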

T1 sequence (Q8N568 whole entry): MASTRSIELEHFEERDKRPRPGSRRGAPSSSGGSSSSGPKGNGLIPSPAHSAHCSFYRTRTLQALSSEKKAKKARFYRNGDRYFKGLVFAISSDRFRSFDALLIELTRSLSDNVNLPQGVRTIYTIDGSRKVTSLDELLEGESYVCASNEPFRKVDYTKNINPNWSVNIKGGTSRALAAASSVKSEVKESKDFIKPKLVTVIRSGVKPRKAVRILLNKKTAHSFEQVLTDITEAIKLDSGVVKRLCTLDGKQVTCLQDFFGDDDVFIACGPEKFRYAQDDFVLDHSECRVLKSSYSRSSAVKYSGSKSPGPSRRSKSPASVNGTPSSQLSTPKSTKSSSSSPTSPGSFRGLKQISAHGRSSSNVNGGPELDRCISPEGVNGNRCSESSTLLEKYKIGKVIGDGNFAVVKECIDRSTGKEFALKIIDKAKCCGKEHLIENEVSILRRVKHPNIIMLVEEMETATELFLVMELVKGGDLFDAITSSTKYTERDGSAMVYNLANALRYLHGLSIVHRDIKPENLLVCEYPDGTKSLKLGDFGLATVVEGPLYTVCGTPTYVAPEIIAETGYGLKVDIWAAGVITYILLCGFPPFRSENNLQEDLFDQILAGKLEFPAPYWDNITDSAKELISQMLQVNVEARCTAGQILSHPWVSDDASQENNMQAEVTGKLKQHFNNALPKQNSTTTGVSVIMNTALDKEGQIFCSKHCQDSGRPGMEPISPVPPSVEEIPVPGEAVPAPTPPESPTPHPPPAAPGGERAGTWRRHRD

Work on `CN(C(=O)CN1CCOCC1)c1ccc2sc3c(-c4cccc5c(=O)cc(N6CC7CCC(C6)O7)oc45)cccc3c2c1` [NU5455] yielded an inhibition at 1 µM of 1.5%.

From PMC6934184, “Selective DNA-PKcs inhibition extends the therapeutic index of localized radiotherapy and chemotherapy” (The Journal of Clinical Investigation, 2019)
